# From US20230026869A1, “CRYSTAL FORM OF NUCLEOPROTEIN INHIBITOR AND USE THEREOF” (CHIA TAI TIANQING PHARMACEUTICAL GROUP CO., LTD., priority 2019, published 2023)
# Assays:
# [1] = Metabolic stability in liver microsomes of SD rats; type: in vitro ADME; conditions: rat
# Experimental: (§1) Objective: The metabolic stability of the tested compound of formula (I) in liver microsomes of rats, beagle dogs and cynomolgus monkeys was determined. […]
# HBV = test: qPCR assay for in vitro testing of HBV (HBV DNA content in HepG2.2.15 cells); type: cell-based; conditions: Hepatitis B virus, 192 h, HBV DNA by qPCR, day 8, read-out: Concentration for 50% of maximal effect (EC50) of HBV
# Experimental: HBV DNA content in HepG2.2.15 cells was detected by a real time-qPCR assay, and the inhibitory action of the compound on HBV was evaluated by taking the EC50 value of the compound as an index.
# 2.1. cell lines: HepG2.2.15 cells
# 3.1. HepG2.2.15 cells (4×10^4 cells/well) were plated in a 96-well plate and cultured overnight at 37° C. and 5% CO2.
# 3.2. On the next day, the compound was diluted for a total of 8 concentrations, with 3-fold gradient dilutions. The compound at different concentrations was added into the culture wells in duplicate. The final concentration of DMSO in the culture medium was 1%. 1 μM GLS4 served as 100% inhibition control (WO2008154817A1 discloses the structure of GLS4 as follows:
# DMSO at 1% served as 0% inhibition control.
# 3.3. On the fifth day, the original culture medium was replaced with a fresh culture medium containing the compound.
# 3.4. On the eighth day, the culture medium in the culture wells was collected, and the high-throughput DNA purification kit (Qiagen-51162) was used to extract DNA. For specific steps, refer to the product manual.
# 3.6. 15 μL of the reaction mixture was added into each well of the 96-well PCR plate, and then 10 μL of sample DNA or HBV DNA standard was added into each well.
# 3.7. Reaction conditions for PCR were as follows: heating at 95° C. for 10 min; then denaturating at 95° C. for 15 s and extending at 60° C. for 1 min for 40 cycles.
# 3.8.1. […]
# [2] = Metabolic stability in liver microsomes of cynomolgus monkeys; type: in vitro ADME; conditions: cynomolgus monkey
# Experimental: as §1
# [3] = Experiment on cytotoxicity (CellTiter-Glo, 3 days); type: cell-based; conditions: 3 days incubation, read-out: 50% cytotoxic concentration (CC50)
# Experimental: • 1. The compound was diluted with DMSO (dimethyl sulfoxide) in a 3-fold gradient for 9 concentrations, and added into a 96-well plate in duplicate. The compound concentration was 200-fold of the final test concentration. • 2. The cells were rinsed with PBS (phosphate buffered saline) once, added with 0.25% trypsin and digested for about 2-5 min in a 37° C., 5% CO2 incubator. Then the digestion was terminated with a cell culture medium and the cells were dispersed into single cells by pipetting with a pipettor. • 3. The cell density was counted with a cell counter, and adjusted to the required density with the medium. • 4. The cells were added into a 96-well plate that had been added with the compound. The final concentration of DMSO in each well was 0.5%. Wells containing 0.5% DMSO were used as non-toxic negative controls, and wells containing the cell culture medium were used as 100% cytotoxicity controls. Then the cell plate was incubated in a 37° C., 5% CO2 cell incubator for 3 days. • 5. The chemiluminescence signal (RLU, relative chemiluminescence unit) of each well in the cell plate was detected with the cell viability detection kit CellTiter-Glo using the multi-functional microplate reader Envision, with instructions on the kit followed. • 6. The raw data (RLU) were substituted into the following formula to calculate the cell viability of each well (cell viability %): […]
structure (smiles),measurement,setting,value
CC1(NC(=O)C(=O)c2c(Cl)c(C(=O)Nc3cc(F)c(F)c(F)c3)c3n2CCC3)CCC(CC(=O)O)CC1 (centres unmarked) [Compound of formula (I)],microsomal CLint at 1 μM,"[1]; SD, microsomes",< 9.6 µL/min/mg
same,CLint scaled at 1 μM,[1]; SD rats liver microsomes,< 17.3 mL/min/kg
same,half-life at 1 μM,"[1]; SD rats liver microsomes, 1 μM compound, 0.5 mg/mL",> 2.42 h
same,EC50,HBV,4 nM
same,microsomal CLint at 1 μM,[2]; microsomes,< 9.6 µL/min/mg
same,CLint scaled at 1 μM,[2]; Cynomolgus monkeys liver microsomes,< 13 mL/min/kg
same,half-life at 1 μM,"[2]; Cynomolgus monkeys liver microsomes, 1 μM compound, 0.5 mg/mL",> 2.42 h
same,CC50 at 3 days,[3],> 50000 nM
